In the supplement of paper PMC5303821, “Major sulfonate transporter Soa1 in Saccharomyces cerevisiae and considerable substrate diversity in its fungal family” (Nature Communications, 2017):

Assays:
[1] = test system: Saccharomyces eubayanus_SOA2; experiment: lag phase before growth; higher = slower start of growth; details: sulfur source concentration 200 µM; S. cerevisiae S288C/BY sul1Δ sul2Δ soa1Δ with transporter ortholog inserted at SOA1 locus; sulfur-free B medium, 4% glucose, pH 6.5, sole sulfur source
[2] = test system: Saccharomyces eubayanus_SOA2; experiment: maximal growth rate with compound as sole sulfur source (OD600 per h); higher = better growth / uptake of the sulfur source; details: S. cerevisiae S288C/BY sul1Δ sul2Δ soa1Δ with transporter ortholog inserted at SOA1 locus, sulfur-free B medium, 4% glucose, pH 6.5, sole sulfur source
[3] = test system: Saccharomyces eubayanus_SOA1; experiment: as above; details: S. cerevisiae S288C/BY sul1Δ sul2Δ soa1Δ with transporter ortholog inserted at SOA1 locus, sulfur-free B medium, 4% glucose, pH 6.5, sole sulfur source
[4] = test system: Fusarium oxysporum_ENH65823; experiment: as above; details: S. cerevisiae S288C/BY sul1Δ sul2Δ soa1Δ with transporter ortholog inserted at SOA1 locus, sulfur-free B medium, 4% glucose, pH 6.5, sole sulfur source
[5] = test system: Aspergillus nidulans_XP_660670; experiment: as above; details: S. cerevisiae S288C/BY sul1Δ sul2Δ soa1Δ with transporter ortholog inserted at SOA1 locus, sulfur-free B medium, 4% glucose, pH 6.5, sole sulfur source
[6] = test system: Aspergillus nidulans_XP_660563; experiment: as above; details: S. cerevisiae S288C/BY sul1Δ sul2Δ soa1Δ with transporter ortholog inserted at SOA1 locus, sulfur-free B medium, 4% glucose, pH 6.5, sole sulfur source
[7] = test system: Metarhizium robertsii_XP_007822519; experiment: as above; details: S. cerevisiae S288C/BY sul1Δ sul2Δ soa1Δ with transporter ortholog inserted at SOA1 locus, sulfur-free B medium, 4% glucose, pH 6.5, sole sulfur source
[8] = test system: Aspergillus nidulans_XP_661711; experiment: as above; details: S. cerevisiae S288C/BY sul1Δ sul2Δ soa1Δ with transporter ortholog inserted at SOA1 locus, sulfur-free B medium, 4% glucose, pH 6.5, sole sulfur source
[9] = test system: Saccharomyces cerevisiae_SOA1; experiment: as above; details: S. cerevisiae S288C/BY sul1Δ sul2Δ soa1Δ with transporter ortholog inserted at SOA1 locus, sulfur-free B medium, 4% glucose, pH 6.5, sole sulfur source
[10] = test system: Aspergillus nidulans_CBF74694; experiment: as above; details: S. cerevisiae S288C/BY sul1Δ sul2Δ soa1Δ with transporter ortholog inserted at SOA1 locus, sulfur-free B medium, 4% glucose, pH 6.5, sole sulfur source
[11] = test system: Metarhizium robertsii_XP_007821441; experiment: as above; details: S. cerevisiae S288C/BY sul1Δ sul2Δ soa1Δ with transporter ortholog inserted at SOA1 locus, sulfur-free B medium, 4% glucose, pH 6.5, sole sulfur source
[12] = test system: Saccharomyces uvarum_SOA1; experiment: as above; details: S. cerevisiae S288C/BY sul1Δ sul2Δ soa1Δ with transporter ortholog inserted at SOA1 locus, sulfur-free B medium, 4% glucose, pH 6.5, sole sulfur source
[13] = test system: Metarhizium robertsii_XP_007823832; experiment: lag phase before growth; higher = slower start of growth; details: S. cerevisiae S288C/BY sul1Δ sul2Δ soa1Δ with transporter ortholog inserted at SOA1 locus, sulfur-free B medium, 4% glucose, pH 6.5, sole sulfur source
[14] = test system: Aspergillus nidulans (IAM 2006)_astA; experiment: as above; details: S. cerevisiae S288C/BY sul1Δ sul2Δ soa1Δ with transporter ortholog inserted at SOA1 locus, sulfur-free B medium, 4% glucose, pH 6.5, sole sulfur source
[15] = test system: Fusarium oxysporum_ENH65823; experiment: as above; details: sulfur source concentration 200 µM; S. cerevisiae S288C/BY sul1Δ sul2Δ soa1Δ with transporter ortholog inserted at SOA1 locus; sulfur-free B medium, 4% glucose, pH 6.5, sole sulfur source
[16] = test system: Aspergillus nidulans_XP_661711; experiment: as above; details: sulfur source concentration 200 µM; S. cerevisiae S288C/BY sul1Δ sul2Δ soa1Δ with transporter ortholog inserted at SOA1 locus; sulfur-free B medium, 4% glucose, pH 6.5, sole sulfur source
[17] = test system: Aspergillus nidulans_XP_661733; experiment: as above; details: S. cerevisiae S288C/BY sul1Δ sul2Δ soa1Δ with transporter ortholog inserted at SOA1 locus, sulfur-free B medium, 4% glucose, pH 6.5, sole sulfur source
[18] = test system: Ogataea parapolymorpha_XP_013936897; experiment: as above; details: sulfur source concentration 200 µM; S. cerevisiae S288C/BY sul1Δ sul2Δ soa1Δ with transporter ortholog inserted at SOA1 locus; sulfur-free B medium, 4% glucose, pH 6.5, sole sulfur source
soa1 del = experiment: as above; details: sulfur source concentration 200 µM; S. cerevisiae S288C/BY sul1Δ sul2Δ soa1Δ with transporter ortholog inserted at SOA1 locus; sulfur-free B medium, 4% glucose, pH 6.5, sole sulfur source
[19] = test system: Aspergillus nidulans_XP_681611; experiment: as above; details: sulfur source concentration 200 µM; S. cerevisiae S288C/BY sul1Δ sul2Δ soa1Δ with transporter ortholog inserted at SOA1 locus; sulfur-free B medium, 4% glucose, pH 6.5, sole sulfur source
[20] = test system: Aspergillus nidulans_XP_660670; experiment: as above; details: sulfur source concentration 200 µM; S. cerevisiae S288C/BY sul1Δ sul2Δ soa1Δ with transporter ortholog inserted at SOA1 locus; sulfur-free B medium, 4% glucose, pH 6.5, sole sulfur source
[21] = test system: Aspergillus nidulans_XP_660563; experiment: as above; details: sulfur source concentration 200 µM; S. cerevisiae S288C/BY sul1Δ sul2Δ soa1Δ with transporter ortholog inserted at SOA1 locus; sulfur-free B medium, 4% glucose, pH 6.5, sole sulfur source
[22] = test system: Aspergillus nidulans_CBF74694; experiment: as above; details: sulfur source concentration 200 µM; S. cerevisiae S288C/BY sul1Δ sul2Δ soa1Δ with transporter ortholog inserted at SOA1 locus; sulfur-free B medium, 4% glucose, pH 6.5, sole sulfur source
[23] = test system: Metarhizium robertsii_XP_007821441; experiment: as above; details: sulfur source concentration 200 µM; S. cerevisiae S288C/BY sul1Δ sul2Δ soa1Δ with transporter ortholog inserted at SOA1 locus; sulfur-free B medium, 4% glucose, pH 6.5, sole sulfur source
[24] = test system: Aspergillus nidulans_CBF80346; experiment: as above; details: sulfur source concentration 200 µM; S. cerevisiae S288C/BY sul1Δ sul2Δ soa1Δ with transporter ortholog inserted at SOA1 locus; sulfur-free B medium, 4% glucose, pH 6.5, sole sulfur source
[25] = test system: Ogataea parapolymorpha_XP_013932458; experiment: as above; details: sulfur source concentration 200 µM; S. cerevisiae S288C/BY sul1Δ sul2Δ soa1Δ with transporter ortholog inserted at SOA1 locus; sulfur-free B medium, 4% glucose, pH 6.5, sole sulfur source
[26] = sulfur source concentration 200 µM
[27] = sulfur source concentration 40000 µM

Compound	lag phase before growth [1]	maximal growth rate [2, 26]	maximal growth rate [3, 26]	maximal growth rate [4, 26]	maximal growth rate [5, 26]	maximal growth rate [6, 26]	maximal growth rate [7, 26]	maximal growth rate [8, 26]	maximal growth rate [9, 26]	maximal growth rate [10, 26]	maximal growth rate [11, 26]	maximal growth rate [12, 26]	lag phase before growth [13, 26]	lag phase before growth [14, 26]	lag phase before growth [15]	lag phase before growth [16]	lag phase before growth [17, 26]	lag phase before growth [18]	lag phase before growth (soa1 del)	lag phase before growth [19]	lag phase before growth [20]	lag phase before growth [21]	lag phase before growth [22]	lag phase before growth [23]	lag phase before growth [24]	lag phase before growth [25]	lag phase before growth [13, 27]	lag phase before growth [17, 27]	lag phase before growth [14, 27]	maximal growth rate [2, 27]	maximal growth rate [3, 27]	maximal growth rate [4, 27]	maximal growth rate [5, 27]	maximal growth rate [6, 27]	maximal growth rate [7, 27]	maximal growth rate [8, 27]	maximal growth rate [9, 27]	maximal growth rate [10, 27]	maximal growth rate [11, 27]	maximal growth rate [12, 27]
CCCCS(=O)(=O)O [Butanesulfonate]	10.1 h	0.0837	0.0734	0.00349	0.00393	0.00657	0.00366	0.00392	0.0882	0.00269	0.00375	0.0795	–	–	–	–	–	–	–	–	–	–	–	–	–	–	–	–	–	–	–	–	–	–	–	–	–	–	–	–
CCS(=O)(=O)O [Ethanesulfonate]	13.1 h	0.0754	0.0681	0.00347	0.0037	0.00579	0.0594	0.00368	0.076	0.00278	0.00304	0.0735	–	–	–	–	–	–	–	–	–	–	–	–	–	–	–	–	–	–	–	–	–	–	–	–	–	–	–	–
O=S(=O)(O)CO [Hydroxymethane sulfonate]	23.8 h	0.0594	0.0972	0.00319	0.00358	0.00603	0.0756	0.00357	0.121	0.00325	0.0032	0.109	4.31 h	0.457 h	–	–	–	–	–	–	–	–	–	–	–	–	–	–	–	–	–	–	–	–	–	–	–	–	–	–
N[C@@H](CS(=O)(=O)O)C(=O)O [L-cysteic acid]	–	0.00291	0.00648	0.01	0.00837	0.00641	0.00861	0.00852	0.037	0.003	0.00544	0.00754	7.57 h	–	7.6 h	5.14 h	17.2 h	–	–	–	–	–	–	–	–	–	–	–	–	–	–	–	–	–	–	–	–	–	–	–
CSCC[C@H](N)C(=O)O [Methionine]	4.47 h	0.127	0.129	0.144	0.139	0.13	0.139	0.139	0.145	0.138	0.137	0.131	4.38 h	5.14 h	5.35 h	4.47 h	4.49 h	2.97 h	4.14 h	3.6 h	4.47 h	3.48 h	5.36 h	4.5 h	5.16 h	3.88 h	–	–	–	–	–	–	–	–	–	–	–	–	–	–
CCCS(=O)(=O)O [Propanesulfonate]	14 h	0.0792	0.0691	0.00365	0.00401	0.00627	0.0162	0.00399	0.0797	0.00267	0.0026	0.0748	–	–	–	–	–	–	–	–	–	–	–	–	–	–	–	–	–	–	–	–	–	–	–	–	–	–	–	–
O=S(=O)(O)O [sulfate]	–	0.00313	0.00395	0.00376	0.00401	0.00621	0.00347	0.00398	0.00588	0.00273	0.00309	0.0032	8.36 h	6.92 h	–	–	–	–	–	–	–	–	–	–	–	–	11.7 h	39.2 h	7.29 h	0.00349	0.0997	0.0142	0.00492	0.00638	0.00386	0.00545	0.123	0.00346	0.00378	0.0989
O=S(O)O [sulfite]	–	0.00564	0.0839	0.00381	0.00402	0.00646	0.0114	0.004	0.12	0.00286	0.00339	0.0915	8.25 h	6.93 h	–	–	–	–	–	–	–	–	–	–	–	–	–	–	–	–	–	–	–	–	–	–	–	–	–	–
